{"source": "patent US20230331679A1", "about": "“NAPHTHALENE MONOIMIDE COMPOUNDS AND METHODS THEREOF” (JAWAHARLAL NEHRU CENTRE FOR ADVANCED SCIENTIFIC RESEARCH, priority 2020, published 2023)", "key": {"α-Syn": {"target": "α-Syn (Homo sapiens, UniProt P37840)", "experiment": "ThT binding assay, α-Syn aggregation inhibition", "type": "biochemical", "text": "Parkinson’s disease (PD) is a neuronal disorder, mainly affects the motor system. α-Syn is a presynaptic neuronal protein that is linked neuropathologically to PD plays a vital role in the pathogenesis in a number of ways. Self-aggregation of α-Syn to form fibrillar aggregates and these toxic species mediate disruption of cellular homeostasis and cause neuronal death. These toxic aggregates affect various intracellular targets, especially synaptic function. In this context, NMI compounds of the present disclosure were used to study the possible modulation of α-Syn aggregation. The effect of NMI compounds (TGR63 and TGR64) on α-syn (100 µM) aggregation inhibition was studied through ThT binding assay. Experiments were performed at stoichiometric ratios (α-Syn:inhibitor) of 1:1, 1:2, and 1:5 with the fixed concentration of α-Syn at 100 µM."}, "Full length tau": {"target": "T1, Full length tau (Homo sapiens, UniProt P10636)", "T1 construct": "Full length tau (5 µM) was incubated with TGR63", "T1 sequence (P10636 1-441 isoform P10636-8)": "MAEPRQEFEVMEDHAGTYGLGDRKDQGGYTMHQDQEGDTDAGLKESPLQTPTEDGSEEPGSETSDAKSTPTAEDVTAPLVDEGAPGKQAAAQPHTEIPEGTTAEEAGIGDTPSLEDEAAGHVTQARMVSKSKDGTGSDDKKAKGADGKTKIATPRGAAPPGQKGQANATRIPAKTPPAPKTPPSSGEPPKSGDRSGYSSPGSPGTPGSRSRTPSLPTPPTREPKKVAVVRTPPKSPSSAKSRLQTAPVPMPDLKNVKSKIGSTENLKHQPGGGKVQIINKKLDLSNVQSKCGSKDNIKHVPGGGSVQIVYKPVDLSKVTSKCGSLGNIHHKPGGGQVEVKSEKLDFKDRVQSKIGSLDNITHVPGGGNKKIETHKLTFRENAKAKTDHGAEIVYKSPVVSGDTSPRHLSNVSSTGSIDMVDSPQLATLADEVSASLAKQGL", "experiment": "ThT fluorescence assay, inhibition of tau aggregation", "type": "biochemical", "conditions": "for ThT fluorescence signal compared with untreated controls (100%): tau 5 µM, heparin 1.25 µM, 72 h at 37° C.", "text": "Tau is a microtubule-associated proteins that interacts with tubulin and stimulates its assembly into microtubules. The extent of phosphorylation regulates the activity of tau protein and the hyperphosphorylation diminishes its physiological function leading to several neuronal disorders like AD and tauopathies. The self-aggregation of hyperphosphorylated tau form intracellular neurofibrillary tangles (NFTs) and paired helical filaments (PHFs) that impairs the axonal functions and degenerates neuronal cells. Considering the prominent role of tau in AD pathology, the self-aggregation and deposition of hyperphosphorylated tau became a potential target to tackle AD and related tauopathies. Effect of TGR63 on tau aggregation was assessed. Full length tau (5 µM) was incubated with TGR63 (5 and 25 µM) for 72 h at 37° C. in the presence of aggregation inducer (heparin; 1.25 µM). The extent of aggregation of incubated samples were assessed by ThT fluorescence (λex= 442 nm and λem=482 nm) assay. FIG. 25 depicts the inhibition of tau (5 µM) aggregation in presence of TGR63. As expected, the ThT fluorescence signal was increased by ~15 folds with compare to only ThT, which confirmed the formation of pathogenic tau aggregates."}, "[1]": {"experiment": "Serum stability under in vitro conditions (absorbance)", "type": "in vitro ADME", "conditions": "WT mouse blood serum, 0.5, 1, 2 and 6 h at 37° C."}, "Aβ42": {"target": "T2, Aβ42 (Homo sapiens, UniProt P05067)", "T2 construct": "commercially available β-amyloid peptide (1-42), human; purchased marck (so in the source) PP69-.025 mg", "T2 sequence (P05067 672-713 limits assumed)": "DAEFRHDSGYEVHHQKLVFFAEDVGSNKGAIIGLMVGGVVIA", "experiment": "ThT binding assay, inhibition of Aβ42 fibrillar assembly", "type": "biochemical", "description": "Monomeric form of Aβ42 peptide was prepared by dissolving 0.25 mg of commercially available β-amyloid peptide (1-42), human (cat: PP69-.025 mg), marck peptide in 250 µL of hexafluoro-2-propanol (HFIP) solvent to obtain a Aβ42 solution. This solution was incubated at room temperature for 1 hour, further to which the HFIP solvent was removed by nitrogen gas flow to obtain the monomeric Aβ42 peptide. To prepare a fibrillar sample of Aβ42 peptide, 0.025 mg of Aβ42 peptide was dissolved in […] of PBS buffer (pH = 7.4; contains 2% of DMSO or 100 mM NaOH) to obtain a monomeric Aβ42 solution and the peptide concentration in this solution was calculated through UV-Visible absorbance studies (ε = 1450 cm^-1 M^-1). The Aβ42 monomeric solution was incubated for 5 days in PBS buffer (pH = 7.4) to allow for the full phase formation of Aβ42 fibrils. The presence of Aβ42 fibrils was further confirmed by ThT assay.\nInitially, the ability of the prepared NMI compounds, TGR63-68 to inhibit Aβ42 fibrillar assembly at 1:1 molar ratio with Aβ42 fibrils was evaluated using thioflavin (ThT) binding assay. 10 µM of Aβ42 fibrils in the absence (Ctrl) and the presence of 10 µM of inhibitors individually were incubated for 72 h. A normalized data for fluorescence intensity (NFI) of ThT at 482 nm (λex = 442 nm) was measured as represented in FIG. 1(a).\nThe ability of NMI compounds (TGR63, TGR64 and TGR65) to prevent Aβ42 fibrillar assembly (inhibition) and to break down the preformed fibrils (dissolution) was evaluated using thioflavin (ThT) binding assay. Aβ42 fibrils at a concentration of 10 µM and its aggregates, were used to study the effect of NMI compounds (TGR63, TGR64 and TGR65) at varying concentrations on both inhibition and dissolution assays. For the inhibition assay, all the NMI compounds (TGR63, TGR64 and TGR65) were added independently to Aβ peptide (10 µM) at 0 h of the experiment, whereas for the aggregates dissolution assay they were added to Aβ42 fibrillar aggregates grown for 2 days. Upon incubating for a predetermined period, Aβ42 inhibitor samples were analyzed using ThT by measuring the fluorescence change at 485 nm as presented in FIG. 1(b) and FIG. 1(c), wherein the error bars represent the standard deviation (SD) of the fluorescence measurement. Fluorescence values were normalized to maximal fluorescence intensity at 485 nm compared to that of the control (Aβ42 with no inhibitor). Experiments were performed at various stoichiometric ratios (Aβ42/inhibitor) of 1:1, 1:2, and 1:5 with a fixed concentration of Aβ42 at 10 µM. Each experiment was repeated three times (n = 3). […] TGR 63 recorded 80% dissolution efficiency while TGR 64 and TGR 65 recorded 75% and 78% dissolution efficiency respectively, for the stoichiometric ratio of 1:5."}}}
{"smiles": "CN(C)c1ccc(C#Cc2ccc3c4c(cccc24)C(=O)N(CC[N+](C)(C)C)C3=O)cc1", "note": "[TGR63, 2-(6-((4-(dimethylamino)phenyl)ethynyl)-1,3-dioxo-1H-benzo[de]isoquinolin-2(3H)-yl)-N,N,N-trimethylethan-1-aminium]", "values": [{"measurement": "decrease in the formation of α-Syn aggregates", "setting": "α-Syn; α-Syn:inhibitor 1:1, α-Syn 100 µM", "result": "~ 54%"}, {"measurement": "α-Syn aggregation decreased to", "setting": "α-Syn; α-Syn:inhibitor 1:2, α-Syn 100 µM", "result": 65, "unit": "%"}, {"measurement": "α-Syn aggregation decreased to", "setting": "α-Syn; α-Syn:inhibitor 1:5, α-Syn 100 µM", "result": 93, "unit": "%"}, {"measurement": "ThT fluorescence signal compared with untreated controls (100%)", "setting": "Full length tau; TGR63 5 µM", "result": "~ 72%"}, {"measurement": "ThT fluorescence signal compared with untreated controls (100%)", "setting": "Full length tau; TGR63 25 µM", "result": "~52", "unit": "%"}, {"measurement": "reduction of tau aggregates", "setting": "Full length tau; tau:TGR63 1:1", "result": "~ 28%"}, {"measurement": "reduction of tau aggregates", "setting": "Full length tau; tau:TGR63 1:5", "result": "~48", "unit": "%"}, {"measurement": "stability in blood serum (normalized absorbance at 450 nm)", "setting": "[1]", "result": "confirmed the stability of TGR63 in blood serum"}, {"measurement": "inhibitory effect on Aβ42 aggregation (ThT NFI at 482 nm)", "setting": "Aβ42; 1:1 molar ratio, 10 µM Aβ42, 10 µM inhibitor, 72 h", "result": "~ 45%"}, {"measurement": "decrease in the formation of Aβ aggregates", "setting": "Aβ42; Aβ42/inhibitor 1:1, Aβ42 10 µM, third day of incubation", "result": "~ 50%"}, {"measurement": "Aβ aggregation decreased to", "setting": "Aβ42; Aβ42/inhibitor 1:2, Aβ42 10 µM, third day of incubation", "result": 75, "unit": "%"}, {"measurement": "Aβ aggregation decreased to", "setting": "Aβ42; Aβ42/inhibitor 1:5, Aβ42 10 µM, third day of incubation", "result": 90, "unit": "%"}]}
